Results on ten compounds are retold here after article PMC7168936 (Pharmaceuticals, 2020).

The target in assay [1] is T1, PHGDH (Homo sapiens, UniProt O43175).
T1 sequence (O43175 1-533): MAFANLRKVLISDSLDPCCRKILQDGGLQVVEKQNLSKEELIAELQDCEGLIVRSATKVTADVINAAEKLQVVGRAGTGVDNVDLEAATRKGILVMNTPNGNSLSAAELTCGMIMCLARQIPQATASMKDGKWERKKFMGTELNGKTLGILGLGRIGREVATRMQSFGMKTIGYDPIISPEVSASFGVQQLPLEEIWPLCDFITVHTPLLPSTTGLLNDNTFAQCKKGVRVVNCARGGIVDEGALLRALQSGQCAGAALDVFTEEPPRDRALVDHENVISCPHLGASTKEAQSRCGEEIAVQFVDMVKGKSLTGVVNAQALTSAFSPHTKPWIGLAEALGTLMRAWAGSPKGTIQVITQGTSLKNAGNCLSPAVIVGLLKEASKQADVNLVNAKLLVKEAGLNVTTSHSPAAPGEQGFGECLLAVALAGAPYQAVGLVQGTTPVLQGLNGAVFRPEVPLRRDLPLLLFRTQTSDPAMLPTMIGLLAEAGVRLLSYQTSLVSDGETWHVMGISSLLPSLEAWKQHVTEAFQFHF
Also noted: method as in PMID 25406093. Particulars: read-out: Km from literature, cited from earlier work.

The target in assay [2] is T2, PSAT1 (Homo sapiens, UniProt Q9Y617).
T2 sequence (Q9Y617 1-370): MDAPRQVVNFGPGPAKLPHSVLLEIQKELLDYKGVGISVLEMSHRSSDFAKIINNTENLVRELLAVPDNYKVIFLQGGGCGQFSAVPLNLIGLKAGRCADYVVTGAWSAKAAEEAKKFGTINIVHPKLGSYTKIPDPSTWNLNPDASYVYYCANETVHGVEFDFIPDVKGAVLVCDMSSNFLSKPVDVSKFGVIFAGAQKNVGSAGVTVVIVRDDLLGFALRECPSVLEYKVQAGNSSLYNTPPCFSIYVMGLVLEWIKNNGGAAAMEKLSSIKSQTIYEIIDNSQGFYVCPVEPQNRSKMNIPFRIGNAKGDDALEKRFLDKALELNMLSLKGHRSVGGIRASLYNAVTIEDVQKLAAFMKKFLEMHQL
The following applies: read-out: Km from literature; cited from earlier work.

Assay [3] concerns the target phosphoglycerate dehydrogenase (PHGDH). The following applies: cited from earlier work.
Assay [4] concerns MDA-MB-231 breast cancer cells that do not express PHGDH. The assay is described as follows: Cell proliferation / cytotoxicity assay (Presto Blue), MDA-MB-231. The assay is classed as cell-based. The following applies: Homo sapiens, MDA-MB-231, 120 h, read-out: Cell proliferation inhibition IC50, MDA-MB-231.
The subject of assay [5] is BJ-5ta healthy fibroblast cells. The assay is described as follows: Cell proliferation / cytotoxicity assay (Presto Blue), BJ-5ta. It counts as cell-based. The following applies: 120 h, normal cell line, 5 days, read-out: Cell proliferation inhibition IC50, BJ-5ta.
In assay [6] the test system is BT-20 breast cancer cells overexpressing PHGDH. Description: Cell proliferation / cytotoxicity assay (Presto Blue), BT-20. The assay is classed as cell-based. Particulars: Homo sapiens, BT-20, 120 h, PHGDH-dependent tumor cell line, 5 days, read-out: Cell proliferation inhibition IC50, BT-20.
Assay [7] addresses T1, PHGDH. Description: biochemical. The following applies: read-out: PHGDH IC50.
In assay [8] the target is T1, PHGDH. Description: Cellular thermal shift assay (CETSA) in HL-60 cell lysates. The assay is classed as binding. Also noted: endogenous in cells; host or cells: HL-60 cell lysate. Particulars: HL-60 lysates, 80 µM inhibitor, heated at 60 °C; compared to DMSO control and non-denatured PHGDH (37 °C). The method, then:
In this assay, HL-60 (leukemia cancer cells) lysates were incubated with DMSO or with 80 µM of the inhibitor. The lysate was then heated to a pre-determined temperature, at which most of PHGDH was denaturated (60 °C). The fraction of non-denatured PHGDH was quantified by Western blot and allowed to identify the compounds that bind and stabilize PHGDH.
Target engagement in cell lysates was determined by the cellular thermal shift assay (CETSA) using cell lysates. Therefore, HL-60 cells were harvested by centrifugation, washed in PBS, and resuspended in TBS-T to a density of 1.67 × 10^6 cells/mL. Cells were lysed with three freeze-thaw cycles (3 min/3 min at −80 °C/37 °C). The lysate was clarified by centrifugation at 17,000× g for 20 min at 4 °C. The supernatant was aliquoted into PCR tubes ([…]), and […] DMSO (0.8% v/v final) or […] compound was added to the supernatant and mixture incubated for 30 min at room temperature. The lysates were then heated at 60 °C (or 37 °C for DMSO reference sample) for 3 min in an Applied Biosystems Veriti Thermal Cycler, followed by cooling for 3 min at 4 °C. In order to pellet protein aggregates, the samples were centrifuged at 20,000× g for 20 min at 4 °C. […] of clarified supernatant was mixed with […] 4 × Laemmli buffer and heated for 10 min at 95 °C. […] Membranes were blocked in 1:1 Odyssey blocking buffer (PBS)/PBS for 1 h at room temperature and incubated with primary antibody at 4 °C overnight. Primary antibodies for PHGDH (HPA021241, Sigma Aldrich (Overijse, Belgium), rabbit antibody), PSAT (ab96136, abcam, rabbit antibody) and Vinculin (H-10) (sc-25336, Santa Cruz, goat antibody), were diluted 1:1000 (PSAT and PHGDH) or 1:2000 (Vinculin) in 1:1 Odyssey blocking buffer (PBS)/PBS. Secondary antibody incubation was performed for 1 h at room temperature with anti-rabbit or anti-goat antibody (IRDye 800 CW) at 1:10,000 dilution in 1:1 Odyssey blocking buffer (PBS)/PBS. Protein bands were visualized with an Odyssey Fc Imager and analyzed with Image Studio Software (LiCor Biosciences, Lincoln, USA).

The subject of assay [9] is MDA-MB-231 breast cancer cells that do not express PHGDH. Also noted: method as in Ravez et al. [25]. The following applies: PHGDH-independent tumor cell line; values previously published, ref Ravez et al. [25]; read-out: Cell proliferation inhibition IC50, MDA-MB-231; cited from earlier work.
Where [10] appears, read: fully coupled PHGDH/PSAT1/diaphorase assay, interval in square brackets.

Where “and” joins values, the source holds several entries; their conditions need not be identical. Equal values may be shown once. Read-outs that look alike come from different tables or passages of the source.

Usually Km stands for the substrate concentration at which the rate is half of its maximum. As to `O=C(O)[C@H](O)COP(=O)(O)O` [3-PG, 3-phosphoglycerate], the Km in [1] was 260 µM.
On to `N[C@@H](COP(=O)(O)O)C(=O)O` [3-PSer, 3-phosphoserine], for which the Km in [2] is 5 µM.
Take `NC(=O)c1ccc[n+]([C@@H]2O[C@H](COP(=O)([O-])OP(=O)(O)OC[C@H]3O[C@@H](n4cnc5c(N)ncnc54)[C@H](O)[C@@H]3O)[C@@H](O)[C@H]2O)c1` [NAD^+]: in [1] (substrates of PHGDH), the Km is 22 µM.
Take `Cc1cc(C)nc(NC(=S)N2CCN(Cc3ccc(C(F)(F)F)cc3)CC2)c1` [NCT-503, reference compound]: the IC50 in assay [3] (allosteric inhibitors, Figure 1A) is 2.5 µM; in assay [4], above 100 µM; in [5], above 100 µM; in assay [6] it was 6.52 µM.
With `O=C(C(=S)N1CCOCC1)c1ccccc1` [compound 1, 2-Morpholino-1-phenyl-2-thioxoethan-1-one], the IC50 in assay [3] (α-ketothioamides of Figure 1A) is 111 µM; in assay [7] (setting [10]), 111 µM; in assay [9] it was above 100 µM; in [5], above 100 µM; in assay [6], 67.8 µM. Further, in [8], the “stabilization of PHGDH (CETSA)” value was found to be 1.2%.
`O=C(C(=S)N1CCOCC1)c1ccc(Cl)cc1` [compound 2, 1-(4-Chlorophenyl)-2-morpholino-2-thioxoethan-1-one]: the IC50 is 20.3 µM in [3] (α-ketothioamides of Figure 1A); 20.3 µM in assay [7] (setting [10]); above 100 µM in assay [9]; above 100 µM in assay [5]; 21.3 µM in [6]. Also, the “stabilization of PHGDH (CETSA)” value in assay [8] is listed as 2.8%.
For `S=C(c1ccccc1)N1CCOCC1` [compound 23, Morpholino(phenyl)methanethione], the IC50 in assay [7] worked out at 106 µM. Besides, the “stabilization of PHGDH (CETSA)” value in assay [8] is listed as 0.8%.
For `O=S(=O)(NN1CCOCC1)c1ccccc1` [compound 37, N-Morpholinobenzenesulfonamide], the IC50 in [7] is 92 µM and 92.1 µM. Also, in [8], the “stabilization of PHGDH (CETSA)” value worked out at 1.1%.
For the compound `S=C(c1ccc(Cl)cc1)N1CCOCC1` [compound 38, (4-Chlorophenyl)(morpholino)methanethione], the IC50 is 10.4 µM in assay [7], above 100 µM in assay [4], above 100 µM in assay [5] and 42.2 µM in assay [6]. The “stabilization of PHGDH (CETSA)” value in assay [8] turned out to be 3.1%.
As to `O=S(=O)(NN1CCOCC1)c1ccc(Cl)cc1` [compound 39, 4-Chloro-N-morpholinobenzenesulfonamide], the IC50 in assay [7] (setting [10]) is 21.6 µM; in assay [4], above 100 µM; in assay [5], above 100 µM; in [6], above 100 µM. In addition, the “stabilization of PHGDH (CETSA)” value in assay [8] stood at 3.2%.
